In patent publication US11787780B2 (CORCEPT THERAPEUTICS INCORPORATED, priority 2020, dated 2023):

Legend:
[1] = system: induction of TAT by dexamethasone in HepG2 cells; test: Hep G2 TAT assay (inhibition of dexamethasone-induced TAT); assay type: cell-based, human; conditions: agonist induction of TAT, read-out: average EC50 value (half-maximal effect) of TAT production
[2] = system: induction of TAT by dexamethasone in HepG2 cells; test: as above; assay type: cell-based, human; conditions: challenge of 100 nM dexamethasone, IC50 converted to Ki by Cheng and Prusoff equation
[3] = target: glucocorticoid receptor (GR) recombinant ligand binding domain (LBD) (Homo sapiens (Human), UniProt P04150); test: GR binding fluorescence polarisation (FP) assay; conditions: displacement of fluorescently tagged ligand
Protocol: Binding of test compounds to the glucocorticoid receptor (GR) is determined using a fluorescence polarisation (FP) assay utilising a recombinant ligand binding domain (LBD) of GR. The test compounds are assessed by their ability to displace a fluorescently tagged ligand and detection of the resulting decrease in fluorescence polarisation.

Chain of glucocorticoid receptor (GR) recombinant ligand binding domain (LBD) (P04150 524-758): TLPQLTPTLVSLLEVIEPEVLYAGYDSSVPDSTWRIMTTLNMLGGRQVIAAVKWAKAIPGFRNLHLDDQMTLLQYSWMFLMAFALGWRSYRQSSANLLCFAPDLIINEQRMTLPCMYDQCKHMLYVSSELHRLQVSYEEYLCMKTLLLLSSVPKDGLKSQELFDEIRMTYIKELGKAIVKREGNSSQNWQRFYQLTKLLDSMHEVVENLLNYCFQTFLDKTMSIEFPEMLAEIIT

Row | EC50 [1] | IC50 [3] | SMILES | Ki [2]
1 | 20 nM | – | C[C@@H]1C[C@H]2[C@@H]3CCC4=CC(=O)C=C[C@]4(C)[C@@]3(F)[C@@H](O)C[C@]2(C)[C@@]1(O)C(=O)CO [Dexamethasone, dexamethasone] | –
2 | – | 7.5 nM | Cc1cc2c(cnn2-c2ccc(=O)n(C)c2)cc1C1(Cc2ccc(F)cc2)CCN(S(=O)(=O)c2cnn(C)n2)C1 (centres unmarked) [Example 324, 5-(5-(3-(4-fluorobenzyl)-1-((2-methyl-2H-1,2,3-triazol-4-yl)sulfonyl)pyrrolidin-3-yl)-6-methyl-1H-indazol-1-yl)-1-methylpyridin-2(1H)-one] | 64 nM
3 | – | 28 nM | CC(=O)N1CCC(S(=O)(=O)N2CCC(Cc3ccccc3)(c3cc4cnn(-c5ccc(F)cc5)c4cc3C)C2)CC1 (centres unmarked) [Example 325, 1-(4-((3-benzyl-3-(1-(4-fluorophenyl)-6-methyl-1H-indazol-5-yl)pyrrolidin-1-yl)sulfonyl)piperidin-1-yl)ethan-1-one] | 110 nM
4 | – | 44 nM | Cc1cc2c(cnn2-c2ccc(=O)n(C)c2)cc1C1(Cc2ccccc2)CCN(C(=O)c2ccccc2)C1 (centres unmarked) [Example 326, 5-(5-(1-benzoyl-3-benzylpyrrolidin-3-yl)-6-methyl-1H-indazol-1-yl)-1-methylpyridin-2(1H)-one] | 57 nM
5 | – | 170 nM | Cc1cc2c(cnn2-c2ccc(=O)n(C)c2)cc1C1(Cc2ccccc2)CCN(C(=O)c2ccnnc2)C1 (centres unmarked) [Example 327, 5-(5-(3-benzyl-1-(pyridazine-4-carbonyl)pyrrolidin-3-yl)-6-methyl-1H-indazol-1-yl)-1-methylpyridin-2(1H)-one] | 540 nM
6 | – | 18 nM | Cc1cc2c(cnn2-c2ccc(=O)n(C)c2)cc1C1(Cc2ccccc2)CCN(C(=O)C(C)(F)F)C1 (centres unmarked) [Example 328, 5-(5-(3-benzyl-1-(2,2-difluoropropanoyl)pyrrolidin-3-yl)-6-methyl-1H-indazol-1-yl)-1-methylpyridin-2(1H)-one] | 110 nM
7 | – | 10 nM | Cc1cc2c(cnn2-c2ccc(=O)n(C)c2)cc1C1(Cc2ccccc2)CCN(C(=O)c2ccsc2)C1 (centres unmarked) [Example 329, 5-(5-(3-benzyl-1-(thiophene-3-carbonyl)pyrrolidin-3-yl)-6-methyl-1H-indazol-1-yl)-1-methylpyridin-2(1H)-one] | 140 nM
8 | – | 16 nM | Cc1cc2c(cnn2-c2ccc(=O)n(C)c2)cc1C1(Cc2ccccc2)CCN(C(=O)C2(C(F)(F)F)CC2)C1 (centres unmarked) [Example 330, 5-(5-(3-benzyl-1-(1-(trifluoromethyl)cyclopropane-1-carbonyl)pyrrolidin-3-yl)-6-methyl-1H-indazol-1-yl)-1-methylpyridin-2(1H)-one] | 200 nM
9 | – | 15 nM | Cc1cc2c(cnn2-c2ccc(=O)n(C)c2)cc1C1(Cc2ccccc2)CCN(C(=O)C2CC2C)C1 (centres unmarked) [Example 331, 5-(5-(3-benzyl-1-(2-methylcyclopropane-1-carbonyl)pyrrolidin-3-yl)-6-methyl-1H-indazol-1-yl)-1-methylpyridin-2(1H)-one] | 100 nM
10 | – | 20 nM | Cc1cc2c(cnn2-c2ccc(=O)n(C)c2)cc1C1(Cc2ccccc2)CCN(C(=O)C2CC2)C1 (centres unmarked) [Example 332, 5-(5-(3-benzyl-1-(cyclopropanecarbonyl)pyrrolidin-3-yl)-6-methyl-1H-indazol-1-yl)-1-methylpyridin-2(1H)-one] | 160 nM
11 | – | 11 nM | Cc1cc2c(cnn2-c2ccc(=O)n(C)c2)cc1C1(Cc2ccccc2)CN(S(=O)(=O)c2cnn(C)n2)CC1C (centres unmarked) [Example 335, 5-(5-(3-benzyl-4-methyl-1-((2-methyl-2H-1,2,3-triazol-4-yl)sulfonyl)pyrrolidin-3-yl)-6-methyl-1H-indazol-1-yl)-1-methylpyridin-2(1H)-one] | 46 nM
12 | – | 250 nM | Cc1cc2c(cnn2-c2ccc(F)cc2)cc1C1(Cc2ccccc2)CCN(Cc2ccccc2)C1=O (centres unmarked) [Example 337, 1,3-dibenzyl-3-(1-(4-fluorophenyl)-6-methyl-1H-indazol-5-yl)pyrrolidin-2-one] | 110 nM
13 | – | 26 nM | CS(=O)(=O)N1CCC(Cc2ccccc2)(c2ccc3c(cnn3-c3ccc(F)cc3)c2)C1=O (centres unmarked) [Example 338, 3-benzyl-3-(1-(4-fluorophenyl)-1H-indazol-5-yl)-1-(methylsulfonyl)pyrrolidin-2-one] | 120 nM
14 | – | 44 nM | Cc1cc2c(cnn2-c2ccc(F)cc2)cc1C1(Cc2ccccc2)CCN(S(C)(=O)=O)C1=O (centres unmarked) [Example 339, 3-benzyl-3-(1-(4-fluorophenyl)-6-methyl-1H-indazol-5-yl)-1-(methylsulfonyl)pyrrolidin-2-one] | 120 nM
15 | – | 57 nM | COCC1(c2cc3cnn(-c4ccc(F)cc4)c3cc2C)CCN(S(=O)(=O)c2cnn(C)c2)C1 (centres unmarked) [Example 340, 1-(4-fluorophenyl)-5-(3-(methoxymethyl)-1-((1-methyl-1H-pyrazol-4-yl)sulfonyl)pyrrolidin-3-yl)-6-methyl-1H-indazole] | 820 nM
